Where a name gives a salt, the structure may show the parent alone.
Assays:
[1] = system: anaphylactic asthma in guinea-pigs; assay: Inhibition test of anaphylactic asthma in guinea-pigs; type: in vivo; conditions: intraperitoneal, survived more than 7 minutes
Description: (c) Guinea-pig antiserum against egg albumin
A solution of egg albumin (10 mg.) in normal saline (1 ml.) was mixed with incomplete adjuvant (1 ml.) to give an emulsion. The emulsion was given subcutaneously in a single dose of 0.4 ml. divided equally (0.1 ml.) to the four pads of male Hartley strain guinea-pigs, each weighing 350-380 g.
Two weeks after the administration, a solution of egg albumin (1 mg.) in normal saline (1 ml.) was further given subcutaneously in a single dose of 0.4 ml divided equally (0.1 ml.) to the four pads of the same guinea-pigs.
Subsequently, one week and two weeks after the second adminstration, the guinea-pigs were treated in substantially the same manner as the above second administration.
One week after the final administration, blood samples were collected from the guinea-pigs and treated in substantially the same manner as described in the above item (a). The antisera thus obtained were stored at -80° C. prior to use.
(3) Inhibition test of anaphylactic asthma in guinea-pigs
To ten male Hartley strain guinea-pigs, weighing 300 g was given intravenously the guinea-pig antiserum against egg albumin (0.1 ml.), respectively. Twenty four hours after the administration, each of the guinea-pigs was put individually into each of boxes (innercapacity: 5.3 liters). A normal saline containing egg albumine (1%) was continuously sprayed with a nebulizer into the boxes.
Beforehand, one hour and 30 seconds before putting the guinea-pigs into each of the boxes, a normal saline (1 ml.) containing the prescribed amount of N-methylaurotetanine hydrochloride and carboxymethylcellulose (0.5%) was given intraperitoneally to five guinea-pigs and a normal saline (1 ml.) containing only carboxymethylcellulose (0.5%) was given intraperitoneally to each of the remaining 5 guinea-pigs. Time till the test animal was suffocated to death, was measured and when animals survived more than 7 minutes, inhibition of anaphylactic asthma were judged as effective. Survival (%) was calculated by the following formula: [formula]

[2] = system: P.C.A. reaction in I.C.R. strain mice; assay: Inhibition test of P.C.A. reaction in I.C.R. strain mice, rat hyperimmune antiserum against egg albumin; type: in vivo; conditions: I.C.R. mouse (Table 3-I)
Description: (c) Inhibition test of P.C.A. reaction in I.C.R. (Institute of Cancer Research) strain mice
(i) Test compound: N-methyllaurotetanine hydrochloride
Fifteen male I.C.R. strain mice aged 7 weeks, weighing about 35 g were divided equally into 3 groups. Each of the groups was composed of 5 mice, (in case of intraperioneal administration of the test compound to the mouse, each of the groups was composed of […]).
Ten-hold diluted solution (0.05 ml.) of the rat hyperimmune antiserum against egg albumin was given intracutaneously to the depilated back of each mouse of Group I and Group II, respectively. On the other hand, a rat normal serum (0.05 ml.) was given intracutaneously to the depilated back of each mouse of Group III. Three hours after the administration, a normal saline (0.1 ml.) containing egg albumin (1.5 mg.) and Evans blue (0.5 mg.) was given intravenously to each mouse of Groups I-III in order to bring about P.C.A., respectively.
Beforehand, 3 hours and 1 hours before the admnistration to bring about P.C.A., a normal saline (0.3 ml.) containing the prescribed amount of N-methyllaurotetanine hydrochloride and carboxymethylcellulose (0.5%) was given orally or intraperitoneally to each mouse of Group I, and a normal saline (0.3 ml.) containing only carboxymethylcellulose (0.5%) was given orally or intraperitoneally to each mouse of Group II.
The procedure followed by the above, was carried out in substantially the same manner as described in the above item (2)-(a). […]

SMILES: COc1cc2c(cc1O)CC1c3c(cc(OC)c(OC)c3-2)CCN1C (stereo not drawn) [N-Methyllaurotetanine hydrochloride]
- Survival ([1]; 30 mg/kg): 0%
- Survival ([1]; 60 mg/kg): 40%
- Survival ([1]; 120 mg/kg): 80%
- Inhibitory effect on P.C.A. reaction ([2]; intraperitoneal, 3 mg/kg): 50%
- Inhibitory effect on P.C.A. reaction ([2]; intraperitoneal, 10 mg/kg): 80%
- Inhibitory effect on P.C.A. reaction ([2]; intraperitoneal, 30 mg/kg): 95%
- Inhibitory effect on P.C.A. reaction ([2]; oral, 16 mg/kg): 20%
- Inhibitory effect on P.C.A. reaction ([2]; oral, 48 mg/kg): 50%
- Inhibitory effect on P.C.A. reaction ([2]; oral, 145 mg/kg): 70%
